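Where inhibition never reached the appropriate level, the endpoint shown equals the highest concentration tested. Otherwise, values were interpolated linearly from a five-concentration, 48-hour dose response in 96-well plates. TGI: concentration producing complete growth inhibition.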
How the values were obtained:
Test in all cases: DTP human tumour cell line panel, 48 h
HCC-2998 colon = test system: HCC-2998 colon
SF-268 CNS = test system: SF-268 CNS
K-562 leukemia = test system: K-562 leukemia
A549 NSCLC = test system: A549 NSCLC
HT29 colon = test system: HT29 colon
NCI-H226 lung = test system: NCI-H226 lung
SF-295 CNS = test system: SF-295 CNS
DLD-1 colon = test system: DLD-1 colon
KM20L2 colon = test system: KM20L2 colon
U251 CNS = test system: U251 CNS
XF 498 CNS = test system: XF 498 CNS
LOX IMVI melanoma = test system: LOX IMVI melanoma
HOP-18 NSCLC = test system: HOP-18 NSCLC
KM12 colon = test system: KM12 colon
OVCAR-5 ovarian = test system: OVCAR-5 ovarian
HL-60(TB) leukemia = test system: HL-60(TB) leukemia
RXF 393 renal = test system: RXF 393 renal
M14 melanoma = test system: M14 melanoma
UO-31 renal = test system: UO-31 renal
NCI-H23 lung = test system: NCI-H23 lung
M19-MEL melanoma = test system: M19-MEL melanoma
MOLT-4 leukemia = test system: MOLT-4 leukemia
SK-OV-3 ovarian = test system: SK-OV-3 ovarian
HCT-15 colon = test system: HCT-15 colon
HOP-62 NSCLC = test system: HOP-62 NSCLC
HCT-116 colon = test system: HCT-116 colon
SNB-75 CNS = test system: SNB-75 CNS
MALME-3M melanoma = test system: MALME-3M melanoma
SNB-78 CNS = test system: SNB-78 CNS
SK-MEL-2 melanoma = test system: SK-MEL-2 melanoma
786-0 renal = test system: 786-0 renal
RPMI-8226 leukemia = test system: RPMI-8226 leukemia
ACHN renal = test system: ACHN renal
CCRF-CEM leukemia = test system: CCRF-CEM leukemia
SK-MEL-28 melanoma = test system: SK-MEL-28 melanoma
SF-539 CNS = test system: SF-539 CNS
EKVX NSCLC = test system: EKVX NSCLC
OVCAR-8 ovarian = test system: OVCAR-8 ovarian
SNB-19 CNS = test system: SNB-19 CNS
NCI-H460 lung = test system: NCI-H460 lung
UACC-62 melanoma = test system: UACC-62 melanoma
COLO 205 colon = test system: COLO 205 colon
IGROV1 ovarian = test system: IGROV1 ovarian
NCI-H522 lung = test system: NCI-H522 lung
UACC-257 melanoma = test system: UACC-257 melanoma
SW-620 colon = test system: SW-620 colon
OVCAR-4 ovarian = test system: OVCAR-4 ovarian
A498 renal = test system: A498 renal
TK-10 renal = test system: TK-10 renal
OVCAR-3 ovarian = test system: OVCAR-3 ovarian
SN12C renal = test system: SN12C renal

Measured: TGI

COc1ccc2cc3[n+](cc2c1O)CCc1cc2c(cc1-3)OCO2
> 100 µM: HCC-2998 colon | SF-268 CNS | K-562 leukemia | A549 NSCLC | HT29 colon | NCI-H226 lung | SF-295 CNS | DLD-1 colon | KM20L2 colon | U251 CNS | XF 498 CNS | LOX IMVI melanoma | HOP-18 NSCLC | KM12 colon | OVCAR-5 ovarian | HL-60(TB) leukemia | RXF 393 renal | M14 melanoma | UO-31 renal | NCI-H23 lung | M19-MEL melanoma | MOLT-4 leukemia | SK-OV-3 ovarian | HCT-15 colon | HOP-62 NSCLC | HCT-116 colon | SNB-75 CNS | MALME-3M melanoma | SNB-78 CNS | SK-MEL-2 melanoma | 786-0 renal | RPMI-8226 leukemia | ACHN renal | CCRF-CEM leukemia | SK-MEL-28 melanoma | SF-539 CNS | EKVX NSCLC | OVCAR-8 ovarian | SNB-19 CNS | NCI-H460 lung | UACC-62 melanoma | COLO 205 colon | IGROV1 ovarian | NCI-H522 lung | UACC-257 melanoma | SW-620 colon | OVCAR-4 ovarian | A498 renal | TK-10 renal | OVCAR-3 ovarian | SN12C renal

From PubChem BioAssay (NCI)
